Experimental data reported in the OligoGym collection.
Oligonucleotides are written 5' to 3', each unit as a sugar letter and its base; * is a phosphorothioate linkage, no mark a phosphodiester; rarer units and linkages stand in square brackets, end groups in braces. Plain capitals give the bases only. d = 2'-deoxy (DNA); r = 2'-OH (RNA)

target: UBE2T; test: reporter assay of Huesken 2005; conditions: siRNA
Further: test concentration or dose not given here.

“sense rCrArGrArGrUrArCrArCrArArCrUrCrArArCrAdTdT / antisense rUrGrUrUrGrArGrUrUrGrUrGrUrArCrUrCrUrGdGdA” was tested. Which normalised inhibition (eCFP-eYFP dual reporter) did it give?
Its normalised inhibition (eCFP-eYFP dual reporter) is 83%.

With “sense rCrArGrGrCrArUrCrArCrArUrGrUrUrGrGrCrAdTdT / antisense rUrGrCrCrArArCrArUrGrUrGrArUrGrCrCrUrGdGdG” as the substance, how does the normalised inhibition (eCFP-eYFP dual reporter) read?
The normalised inhibition (eCFP-eYFP dual reporter) was 90.8%.

Which normalised inhibition (eCFP-eYFP dual reporter) does the source give for “sense rCrArUrCrGrCrArArCrUrGrUrGrUrUrGrArCrCdTdT / antisense rGrGrUrCrArArCrArCrArGrUrUrGrCrGrArUrGdTdT” here?
Its normalised inhibition (eCFP-eYFP dual reporter) is 84.8%.

“sense rCrCrArArArArGrGrUrGrCrUrUrGrGrArGrArCdTdT / antisense rGrUrCrUrCrCrArArGrCrArCrCrUrUrUrUrGrGdTdG” was tested. Which normalised inhibition (eCFP-eYFP dual reporter) did it give?
Its normalised inhibition (eCFP-eYFP dual reporter) is 84.9%.

With “sense rCrCrArArArUrGrGrArUrGrArCrCrUrGrCrGrAdTdT / antisense rUrCrGrCrArGrGrUrCrArUrCrCrArUrUrUrGrGdTdC” as the substance, how does the normalised inhibition (eCFP-eYFP dual reporter) read?
Its normalised inhibition (eCFP-eYFP dual reporter) is 95.3%.

For “sense rCrCrArArUrUrUrArUrCrArUrCrCrArArArCrAdTdT / antisense rUrGrUrUrUrGrGrArUrGrArUrArArArUrUrGrGdAdG”, which normalised inhibition (eCFP-eYFP dual reporter) is on record?
Its normalised inhibition (eCFP-eYFP dual reporter) is 101%.

“sense rCrCrCrUrCrArArCrArUrCrGrCrArArCrUrGrUdTdT / antisense rArCrArGrUrUrGrCrGrArUrGrUrUrGrArGrGrGdAdT” was tested. Which normalised inhibition (eCFP-eYFP dual reporter) did it give?
Its normalised inhibition (eCFP-eYFP dual reporter) is 106%.

How did the normalised inhibition (eCFP-eYFP dual reporter) turn out when “sense rCrCrCrUrGrArUrGrArCrCrCrGrCrUrCrArUrGdTdT / antisense rCrArUrGrArGrCrGrGrGrUrCrArUrCrArGrGrGdTdT” was run?
The normalised inhibition (eCFP-eYFP dual reporter) was 91.2%.

With “sense rCrCrUrGrArGrArGrGrUrArCrCrCrArUrUrUrGdTdT / antisense rCrArArArUrGrGrGrUrArCrCrUrCrUrCrArGrGdAdA” as the substance, how does the normalised inhibition (eCFP-eYFP dual reporter) read?
Its normalised inhibition (eCFP-eYFP dual reporter) is 78.5%.

“sense rCrCrUrGrArUrGrArCrCrCrGrCrUrCrArUrGrGdTdT / antisense rCrCrArUrGrArGrCrGrGrGrUrCrArUrCrArGrGdGdT” was tested. Which normalised inhibition (eCFP-eYFP dual reporter) did it give?
The normalised inhibition (eCFP-eYFP dual reporter) was 83.5%.

Which normalised inhibition (eCFP-eYFP dual reporter) does the source give for “sense rCrCrUrGrCrGrArGrCrUrCrArArArUrArUrUrAdTdT / antisense rUrArArUrArUrUrUrGrArGrCrUrCrGrCrArGrGdTdC” here?
The normalised inhibition (eCFP-eYFP dual reporter) was 102%.

How did the normalised inhibition (eCFP-eYFP dual reporter) turn out when “sense rCrGrArGrCrUrCrArArArUrArUrUrArGrGrUrGdTdT / antisense rCrArCrCrUrArArUrArUrUrUrGrArGrCrUrCrGdCdA” was run?
The normalised inhibition (eCFP-eYFP dual reporter) was 90%.

For “sense rCrGrArUrUrUrCrUrCrArCrUrCrCrArArUrUrUdTdT / antisense rArArArUrUrGrGrArGrUrGrArGrArArArUrCrGdGdA”, which normalised inhibition (eCFP-eYFP dual reporter) is on record?
The normalised inhibition (eCFP-eYFP dual reporter) was 107%.

With “sense rCrUrCrArArArUrUrGrCrCrArCrCrArArArArGdTdT / antisense rCrUrUrUrUrGrGrUrGrGrCrArArUrUrUrGrArGdAdA” as the substance, how does the normalised inhibition (eCFP-eYFP dual reporter) read?
Its normalised inhibition (eCFP-eYFP dual reporter) is 68.5%.

With “sense rCrUrCrArGrArArUrUrUrArArArUrArUrArArUdTdT / antisense rArUrUrArUrArUrUrUrArArArUrUrCrUrGrArGdGdA” as the substance, how does the normalised inhibition (eCFP-eYFP dual reporter) read?
The normalised inhibition (eCFP-eYFP dual reporter) was 85.9%.

Which normalised inhibition (eCFP-eYFP dual reporter) does the source give for “sense rCrUrCrCrArArUrUrUrArUrCrArUrCrCrArArAdTdT / antisense rUrUrUrGrGrArUrGrArUrArArArUrUrGrGrArGdTdG” here?
Its normalised inhibition (eCFP-eYFP dual reporter) is 107%.

Which normalised inhibition (eCFP-eYFP dual reporter) does the source give for “sense rCrUrGrCrUrCrArUrGrUrCrArGrArArCrCrCrAdTdT / antisense rUrGrGrGrUrUrCrUrGrArCrArUrGrArGrCrArGdCdT” here?
The normalised inhibition (eCFP-eYFP dual reporter) was 104%.

For “sense rCrUrUrArUrGrArGrArArArGrGrUrGrUrUrUrUdTdT / antisense rArArArArCrArCrCrUrUrUrCrUrCrArUrArArGdGdT”, which normalised inhibition (eCFP-eYFP dual reporter) is on record?
The normalised inhibition (eCFP-eYFP dual reporter) was 92.5%.

How did the normalised inhibition (eCFP-eYFP dual reporter) turn out when “sense rCrUrUrCrCrUrCrArArGrArArUrGrCrCrArGrAdTdT / antisense rUrCrUrGrGrCrArUrUrCrUrUrGrArGrGrArArGdGdC” was run?
The normalised inhibition (eCFP-eYFP dual reporter) was 76%.

With “sense rGrArArGrArGrArUrGrCrUrUrGrArUrArArUrCdTdT / antisense rGrArUrUrArUrCrArArGrCrArUrCrUrCrUrUrCdCdT” as the substance, how does the normalised inhibition (eCFP-eYFP dual reporter) read?
Its normalised inhibition (eCFP-eYFP dual reporter) is 85.9%.

Which normalised inhibition (eCFP-eYFP dual reporter) does the source give for “sense rGrArArGrCrArUrGrCrArArGrArCrArGrArArAdTdT / antisense rUrUrUrCrUrGrUrCrUrUrGrCrArUrGrCrUrUrCdTdC” here?
Its normalised inhibition (eCFP-eYFP dual reporter) is 97.1%.

How did the normalised inhibition (eCFP-eYFP dual reporter) turn out when “sense rGrArArGrGrCrCrArGrUrCrArGrCrUrArGrUrAdTdT / antisense rUrArCrUrArGrCrUrGrArCrUrGrGrCrCrUrUrCdCdT” was run?
The normalised inhibition (eCFP-eYFP dual reporter) was 91.9%.

How did the normalised inhibition (eCFP-eYFP dual reporter) turn out when “sense rGrArCrCrUrGrCrGrArGrCrUrCrArArArUrArUdTdT / antisense rArUrArUrUrUrGrArGrCrUrCrGrCrArGrGrUrCdAdT” was run?
The normalised inhibition (eCFP-eYFP dual reporter) was 101%.

Which normalised inhibition (eCFP-eYFP dual reporter) does the source give for “sense rGrArUrGrArGrGrArArGrArGrArUrGrCrUrUrGdTdT / antisense rCrArArGrCrArUrCrUrCrUrUrCrCrUrCrArUrCdAdG” here?
The normalised inhibition (eCFP-eYFP dual reporter) was 95.1%.

“sense rGrArUrUrUrGrUrCrUrGrGrArUrGrUrUrCrUrCdTdT / antisense rGrArGrArArCrArUrCrCrArGrArCrArArArUrCdCdT” was tested. Which normalised inhibition (eCFP-eYFP dual reporter) did it give?
Its normalised inhibition (eCFP-eYFP dual reporter) is 75%.

“sense rGrCrArArCrUrGrUrGrUrUrGrArCrCrUrCrUrAdTdT / antisense rUrArGrArGrGrUrCrArArCrArCrArGrUrUrGrCdGdA” was tested. Which normalised inhibition (eCFP-eYFP dual reporter) did it give?
The normalised inhibition (eCFP-eYFP dual reporter) was 114%.

Which normalised inhibition (eCFP-eYFP dual reporter) does the source give for “sense rGrCrGrArGrCrUrCrArArArUrArUrUrArGrGrUdTdT / antisense rArCrCrUrArArUrArUrUrUrGrArGrCrUrCrGrCdAdG” here?
Its normalised inhibition (eCFP-eYFP dual reporter) is 71.6%.

Which normalised inhibition (eCFP-eYFP dual reporter) does the source give for “sense rGrCrUrArGrUrArGrGrCrArUrArGrArArArArGdTdT / antisense rCrUrUrUrUrCrUrArUrGrCrCrUrArCrUrArGrCdTdG” here?
The normalised inhibition (eCFP-eYFP dual reporter) was 106%.

How did the normalised inhibition (eCFP-eYFP dual reporter) turn out when “sense rGrCrUrCrArArArUrArUrUrArGrGrUrGrGrArGdTdT / antisense rCrUrCrCrArCrCrUrArArUrArUrUrUrGrArGrCdTdC” was run?
Its normalised inhibition (eCFP-eYFP dual reporter) is 87.1%.

For “sense rGrCrUrGrArUrGrArGrGrArArGrArGrArUrGrCdTdT / antisense rGrCrArUrCrUrCrUrUrCrCrUrCrArUrCrArGrCdCdT”, which normalised inhibition (eCFP-eYFP dual reporter) is on record?
Its normalised inhibition (eCFP-eYFP dual reporter) is 73.8%.

How did the normalised inhibition (eCFP-eYFP dual reporter) turn out when “sense rGrCrUrUrGrArUrArArUrCrUrArCrCrArGrArGdTdT / antisense rCrUrCrUrGrGrUrArGrArUrUrArUrCrArArGrCdAdT” was run?
Its normalised inhibition (eCFP-eYFP dual reporter) is 101%.

With “sense rGrGrArArGrGrArUrUrUrGrUrCrUrGrGrArUrGdTdT / antisense rCrArUrCrCrArGrArCrArArArUrCrCrUrUrCrCdAdG” as the substance, how does the normalised inhibition (eCFP-eYFP dual reporter) read?
Its normalised inhibition (eCFP-eYFP dual reporter) is 96.1%.

“sense rGrGrCrArUrCrArCrArUrGrUrUrGrGrCrArArGdTdT / antisense rCrUrUrGrCrCrArArCrArUrGrUrGrArUrGrCrCdTdG” was tested. Which normalised inhibition (eCFP-eYFP dual reporter) did it give?
Its normalised inhibition (eCFP-eYFP dual reporter) is 87.3%.

“sense rGrGrUrGrCrUrUrGrGrArGrArCrCrArUrCrCrCdTdT / antisense rGrGrGrArUrGrGrUrCrUrCrCrArArGrCrArCrCdTdT” was tested. Which normalised inhibition (eCFP-eYFP dual reporter) did it give?
The normalised inhibition (eCFP-eYFP dual reporter) was 80.4%.

For “sense rGrUrGrArCrUrCrCrArGrArGrUrArCrArCrArAdTdT / antisense rUrUrGrUrGrUrArCrUrCrUrGrGrArGrUrCrArCdCdA”, which normalised inhibition (eCFP-eYFP dual reporter) is on record?
Its normalised inhibition (eCFP-eYFP dual reporter) is 108%.

For “sense rGrUrUrArUrCrArUrUrCrCrUrGrArGrArGrGrUdTdT / antisense rArCrCrUrCrUrCrArGrGrArArUrGrArUrArArCdTdT”, which normalised inhibition (eCFP-eYFP dual reporter) is on record?
Its normalised inhibition (eCFP-eYFP dual reporter) is 75.4%.

Which normalised inhibition (eCFP-eYFP dual reporter) does the source give for “sense rUrArArArGrArCrCrArArArUrGrGrArUrGrArCdTdT / antisense rGrUrCrArUrCrCrArUrUrUrGrGrUrCrUrUrUrAdTdC” here?
The normalised inhibition (eCFP-eYFP dual reporter) was 63.2%.
